Measurements as given in patent US10844420B2, “Method for detecting slow-VISA” (priority 2016, dated 2020).

Columns and labels:
Format in all cases: cell-based, Staphylococcus aureus
[1] = tested on: VISA; experiment: Growth of VISA in liquid medium containing VCM with or without mupirocin; details: FIG. 1(b)
Source text: (§1) From FIG. 1(b), when VISA was used, an increase in the growth rate by the addition of mupirocin was not observed.

[2] = tested on: slow-VISA; experiment: Disk diffusion method of VCM on BHI agar medium with or without mupirocin; details: 30 μg/mL vancomycin disks, BHI agar containing 0.032 μg/mL of mupirocin, culture for 48 hours
Procedure: The disk diffusion method using […] vancomycin disks was separately performed on BHI agar media containing 0.032 μg/mL of mupirocin or BHI agar media in the absence of a drug. […] The values shown above the panels indicate the averages and standard deviations of the diameters of inhibitory zones.

[3] = tested on: vancomycin-sensitive strain; experiment: ETEST of VCM on BHI medium added with mupirocin, vancomycin-sensitive strain; details: BHI medium added with mupirocin at a concentration at which growth was not suppressed
Procedure: (§2) (2) The bacteria grown in step (a) is adjusted to OD=0.3 using an absorbance measuring instrument (wavelength of 578 nm), and it was set as 1×10^8 cells. Then, the bacteria are spread on a BHI agar medium of Eiken Chemical Co., Ltd. and a mupirocin-containing BHI agar medium, and the ETEST® strips (bioMerieux Japan Ltd.) of VCM and cefoxitin are placed thereon, followed by culture for 48 hours in accordance with the CLSI guideline. After 48 hours, tested bacteria having a MIC of cefoxitin of ≥8 μg/mL and a MIC of VCM of >6 μg/mL are suspected to be slow-VISA.
(§3) Further, it was supposed that the resistance further increased when the stringent response relating to those mutated genes was induced.

[4] = tested on: slow-VISA; experiment: Growth of slow-VISA in liquid medium containing VCM with or without mupirocin
Source text: In the figure, MUP indicates mupirocin.
as §1

[5] = tested on: slow-VISA; experiment: ETEST of VCM on BHI medium added with mupirocin, slow-VISA; details: BHI medium added with mupirocin at a concentration at which growth was not suppressed
Procedure: The pictures on the left show the results of a mupirocin-free medium after 96 hours, the pictures on the right show the results of a mupirocin-containing medium after 96 hours, and black arrows show the points after 48 hours.
as §2, §3

Structure (SMILES): C/C(=C\C(=O)OCCCCCCCCC(=O)O)C[C@@H]1OC[C@H](C[C@@H]2O[C@H]2[C@@H](C)[C@H](C)O)[C@@H](O)[C@H]1O [mupirocin]
- increase in the growth rate by the addition of mupirocin [1]: not observed
- colonies around inhibitory zone [2]: Small numerous colonies were detected
- degree of resistance (ETEST of VCM) [3]: did not increase
- difference in OD values ([4]; 0.032 μg/mL mupirocin and 16 μg/mL VCM versus comparison media, in 24 hours): ≥ 1
- growth rate versus culture in mupirocin-free liquid medium or medium with growth-affecting mupirocin concentration and 8 μg/mL of VCM ([4]; liquid medium, 0.032 μg/mL mupirocin and 16 μg/mL of VCM): larger
- degree of resistance (ETEST of VCM) [5]: increased
